Calls of active or inactive are those of the source. How the calls were made is not given here.

The series has as its system CCRIS mutagenicity, Ames/micronucleus/aberration tests. The series is described as follows: CCRIS mutagenicity studies.
The mark [1] stands for this setting: Test System: AMES SALMONELLA TYPHIMURIUM, Strain/Indicator: TA98, Metabolic Activation: NONE, Method: STANDARD PLATE.
Setting [2] is: Test System: AMES SALMONELLA TYPHIMURIUM, Strain/Indicator: TA98, Metabolic Activation: RAT, LIVER, S-9, AROCLOR 1254, Method: STANDARD PLATE.
Setting [3] is: Test System: AMES SALMONELLA TYPHIMURIUM, Strain/Indicator: TA100, Metabolic Activation: NONE, Method: STANDARD PLATE.
[4] abbreviates: Test System: AMES SALMONELLA TYPHIMURIUM, Strain/Indicator: TA100, Metabolic Activation: RAT, LIVER, S-9, AROCLOR 1254, Method: STANDARD PLATE.
[5] abbreviates: Test System: AMES SALMONELLA TYPHIMURIUM, Strain/Indicator: TA1537, Metabolic Activation: NONE, Method: STANDARD PLATE.

For the compound `COc1cc(/C=C/C(=O)CC(=O)/C=C/c2ccc(O)c(OC)c2)ccc1O`, the mutagenic call is, setting by setting: (End Point: IN VITRO CHROMOSOMAL ABERRATIONS, Test System: CHO CELLS, Metabolic Activation: NONE) “active; positive (structural changes); presence of iron significantly decreased number o”; (End Point: IN VITRO CHROMOSOMAL ABERRATIONS, Test System: CHO-9 CELLS, Metabolic Activation: NONE) “active; positive (structural changes)”; (End Point: IN VIVO CHROMOSOMAL ABERRATIONS, Test System: BONE MARROW CELLS, Species: RAT, Strain/Sex: WISTAR/MALE, Route: GAVAGE) “inactive; negative; curcumin reduced mutagenic effect of cyclophosphamide”; (End Point: In vitro chromosomal aberrations, Test System: Chinese hamster ovary (CHO-9) cells, Metabolic Activation: None) “active; positive (structural changes)”; (End Point: In vitro micronucleus, Test System: Human lymphocytes, Metabolic Activation: None) “inactive; negative”; (Test System: AMES SALMONELLA TYPHIMURIUM, Strain/Indicator: TA98, Metabolic Activation: HAMSTER, LIVER, S-9, AROCLOR 1254 (10%), Method: PREINCUBATION) “inactive; negative”. Also, the mutagenic call is “inactive; negative” (Test System: AMES SALMONELLA TYPHIMURIUM, Strain/Indicator: TA98, Metabolic Activation: HAMSTER, LIVER, S-9, AROCLOR 1254, Method: STANDARD PLATE); “inactive; negative” (Test System: AMES SALMONELLA TYPHIMURIUM, Strain/Indicator: TA98, Metabolic Activation: NONE, Method: PREINCUBATION); “inactive; negative” under setting [1]; “inactive; negative” (Test System: AMES SALMONELLA TYPHIMURIUM, Strain/Indicator: TA98, Metabolic Activation: RAT, LIVER, S-9, AROCLOR 1254 (10%), Method: PREINCUBATION); “inactive; negative” under setting [2]; “inactive; negative” (Test System: AMES SALMONELLA TYPHIMURIUM, Strain/Indicator: TA100, Metabolic Activation: HAMSTER, LIVER, S-9, AROCLOR 1254 (10%), Method: PREINCUBATION). The mutagenic call is, setting by setting: (Test System: AMES SALMONELLA TYPHIMURIUM, Strain/Indicator: TA100, Metabolic Activation: HAMSTER, LIVER, S-9, AROCLOR 1254, Method: STANDARD PLATE) “inactive; negative”; (Test System: AMES SALMONELLA TYPHIMURIUM, Strain/Indicator: TA100, Metabolic Activation: NONE, Method: PREINCUBATION) “inactive; negative”; under setting [3], “inactive; negative”; (Test System: AMES SALMONELLA TYPHIMURIUM, Strain/Indicator: TA100, Metabolic Activation: RAT, LIVER, S-9, AROCLOR 1254 (10%), Method: PREINCUBATION) “inactive; negative”; under setting [4], “inactive; negative”; (Test System: AMES SALMONELLA TYPHIMURIUM, Strain/Indicator: TA1535, Metabolic Activation: HAMSTER, LIVER, S-9, AROCLOR 1254 (10%), Method: PREINCUBATION) “inactive; negative”. The mutagenic call runs as follows: (Test System: AMES SALMONELLA TYPHIMURIUM, Strain/Indicator: TA1535, Metabolic Activation: HAMSTER, LIVER, S-9, AROCLOR 1254, Method: STANDARD PLATE) “inactive; negative”; (Test System: AMES SALMONELLA TYPHIMURIUM, Strain/Indicator: TA1535, Metabolic Activation: NONE, Method: PREINCUBATION) “inactive; negative”; (Test System: AMES SALMONELLA TYPHIMURIUM, Strain/Indicator: TA1535, Metabolic Activation: NONE, Method: STANDARD PLATE) “inactive; negative”; (Test System: AMES SALMONELLA TYPHIMURIUM, Strain/Indicator: TA1535, Metabolic Activation: RAT, LIVER, S-9, AROCLOR 1254 (10%), Method: PREINCUBATION) “inactive; negative”; (Test System: AMES SALMONELLA TYPHIMURIUM, Strain/Indicator: TA1535, Metabolic Activation: RAT, LIVER, S-9, AROCLOR 1254, Method: STANDARD PLATE) “inactive; negative”; (Test System: AMES SALMONELLA TYPHIMURIUM, Strain/Indicator: TA1537, Metabolic Activation: HAMSTER, LIVER, S-9, AROCLOR 1254 (10%), Method: PREINCUBATION) “inactive; negative”. The mutagenic call runs as follows: (Test System: AMES SALMONELLA TYPHIMURIUM, Strain/Indicator: TA1537, Metabolic Activation: HAMSTER, LIVER, S-9, AROCLOR 1254, Method: STANDARD PLATE) “inactive; negative”; (Test System: AMES SALMONELLA TYPHIMURIUM, Strain/Indicator: TA1537, Metabolic Activation: NONE, Method: PREINCUBATION) “inactive; negative”; under setting [5], “inactive; negative”; (Test System: AMES SALMONELLA TYPHIMURIUM, Strain/Indicator: TA1537, Metabolic Activation: RAT, LIVER, S-9, AROCLOR 1254 (10%), Method: PREINCUBATION) “inactive; negative”; (Test System: AMES SALMONELLA TYPHIMURIUM, Strain/Indicator: TA1537, Metabolic Activation: RAT, LIVER, S-9, AROCLOR 1254, Method: STANDARD PLATE) “inactive; negative”; (Test System: AMES SALMONELLA TYPHIMURIUM, Strain/Indicator: TA1538, Metabolic Activation: HAMSTER, LIVER, S-9, AROCLOR 1254, Method: STANDARD PLATE) “inactive; negative”. The mutagenic call (Test System: AMES SALMONELLA TYPHIMURIUM, Strain/Indicator: TA1538, Metabolic Activation: NONE, Method: STANDARD PLATE) was “inactive; negative” and the mutagenic call (Test System: AMES SALMONELLA TYPHIMURIUM, Strain/Indicator: TA1538, Metabolic Activation: RAT, LIVER, S-9, AROCLOR 1254, Method: STANDARD PLATE) was “inactive; negative”.

For `CN(C)CCNC(=O)c1cc2ccccc2c2cccnc12`, the mutagenic call under setting [5] is “active; positive”.

`COC(=O)CCCN(N=O)C(N)=O`: the mutagenic call reads like this: (Test System: E. COLI B, Strain/Indicator: H/R30R, Metabolic Activation: NONE) “active; positive”; (Test System: E. COLI B, Strain/Indicator: HS30R, Metabolic Activation: NONE) “active; positive”.

Regarding `CCCCN(CO)N=O`, where the note is “Test System: CHINESE HAMSTER V-79, Strain/Indicator: V-79/OUABAIN, Metabolic Activation: NONE”, the mutagenic call was “active; positive”.

As to `FC(F)(F)c1ccc(Cl)nc1`, the mutagenic call was “active; positive” (Test System: MOUSE LYMPHOMA, Strain/Indicator: L5178Y (TK+/TK-), Metabolic Activation: NONE) and “active; positive” (Test System: MOUSE LYMPHOMA, Strain/Indicator: L5178Y (TK+/TK-), Metabolic Activation: RAT, LIVER, S-9, AROCLOR 1254).

As to `Cc1c2ccccc2cc2ccccc12`, the mutagenic call is, setting by setting: (Test System: AMES SALMONELLA TYPHIMURIUM, Strain/Indicator: TA97, Metabolic Activation: NONE, Method: STANDARD PLATE) “inactive; negative”; (Test System: AMES SALMONELLA TYPHIMURIUM, Strain/Indicator: TA97, Metabolic Activation: RAT, LIVER, S-9, PCB, Method: STANDARD PLATE) “active; positive”; under setting [1], “inactive; negative”; under setting [2], “active; positive”; (Test System: AMES SALMONELLA TYPHIMURIUM, Strain/Indicator: TA98, Metabolic Activation: RAT, LIVER, S-9, PCB, Method: STANDARD PLATE) “active; positive”; under setting [3], “inactive; negative”. The mutagenic call was “inactive; negative” under setting [4] and “active; positive” (Test System: AMES SALMONELLA TYPHIMURIUM, Strain/Indicator: TA100, Metabolic Activation: RAT, LIVER, S-9, PCB, Method: STANDARD PLATE).

With `Cn1ccc2ccc3ccc4ccc(O)cc4c3c21`, where the note is “Test System: AMES SALMONELLA TYPHIMURIUM, Strain/Indicator: TA98, Metabolic Activation: RAT, LIVER, S-9, AROCLOR, Method: STANDARD PLATE”, the mutagenic call was “active; positive”.

In the case of `O=[N+]([O-])c1ccc(Cl)c(F)c1`, the mutagenic call (End Point: IN VITRO CHROMOSOMAL ABERRATIONS, Test System: HUMAN PERIPHERAL LYMPHOCYTES, Metabolic Activation: NONE) is “inactive; negative”.

(Values after PubChem BioAssay AID1259407 (Chemical Carcinogenesis Research Information System (CCRIS), 2018).)
